Results reported in paper PMC5084695 (Biochemistry, 2016).

Tests used:
[1] = biological target: SbnA (Staphylococcus aureus, UniProt A6QDA0); assay: coupled inorganic phosphate release assay; format: biochemical
[2] = biological target: SbnA (Staphylococcus aureus, UniProt A6QDA0, S185G); assay: biochemical
[3] = biological target: SbnA (Staphylococcus aureus, UniProt A6QDA0, S185G/Y152F); assay: biochemical

`N[C@@H](CS)C(=O)O` [L-cysteine] showed a Ki [1] of 91 ± 16 µM, a Ki [2] of 2100 ± 500 µM and a Kd [3] of 8900 ± 3200 µM.
